Experimental data: US20230203043A1, “NOVEL IMIDAZOPYRAZINE DERIVATIVES” (Hoffmann-La Roche Inc., priority 2020, published 2023)
Where a name gives a salt, the structure may show the parent alone. Read-outs that look alike come from different tables or passages of the source.

System: Acinetobacter baumannii ATCC17961
Test: Antimicrobial susceptibility testing: 90% growth inhibitory concentration (IC90) determination in Iso-Sensitest broth, OD600 growth
Format: cell-based
Conditions: strain ATCC 17961, OD600 growth over 16 h, read-out: A. baumannii ATCC 17961 IC90
Summary of the method: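 Compounds were twofold serially diluted in DMSO across 10 points (e.g. 50 to 0.097 μM final) and inoculated at ~5×10^(5) CFU/ml. Plates incubated at 35±2° C, with OD600 read every 20 minutes over 16 h. IC90 was derived from growth inhibition during logarithmic growth.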

[1] = Acinetobacter baumannii, ATCC17961, 16 h

## C=CCn1cc(-c2cnc3c(Nc4ccc(C(=O)N5CCN(C(=O)C6CCNCC6)CC5)c(CC)c4)nccn23)c(C(F)(F)F)n1 [Example 64, [2-ethyl-4-[[3-[1-prop-2-enyl-3-(trifluoromethyl)pyrazol-4-yl]imidazo[1,2-a]pyrazin-8-yl]amino]phenyl]-[4-(piperidine-4-carbonyl)piperazin-1-yl]methanone]
[1]
  IC90: 306 nM

## CCc1cc(Nc2nccn3c(-c4cn(CCF)nc4C(F)(F)F)cnc23)ccc1C(=O)N[C@@H](C)CN [Example 65, N-[(2S)-1-aminopropan-2-yl]-2-ethyl-4-[[3-[1-(2-fluoroethyl)-3-(trifluoromethyl)pyrazol-4-yl]imidazo[1,2-a]pyrazin-8-yl]amino]benzamide]
[1]
  IC90: 339 nM

## C#CCNCCCNC(=O)c1c(C)cc(Nc2nccn3c(-c4cn(CC=C)nc4C(F)(F)F)cnc23)cc1F [Example 66, 2-fluoro-6-methyl-4-[[3-[1-prop-2-enyl-3-(trifluoromethyl)pyrazol-4-yl]imidazo[1,2-a]pyrazin-8-yl]amino]-N-[3-(prop-2-ynylamino)propyl] benzamide]
  IC90: 379 nM

## C#CCn1cc(-c2cnc3c(Nc4cc(C)c(C(=O)N5CCNCC5)c(F)c4)nccn23)c(C(F)(F)F)n1 [Example 67, [2-fluoro-6-methyl-4-[[3-[1-prop-2-ynyl-3-(trifluoromethyl)pyrazol-4-yl]imidazo[1,2-a]pyrazin-8-yl]amino]phenyl]-piperazin-1-ylmethanone]
[1]
  IC90: 413 nM

## C#CCNCCCNC(=O)c1c(C)cc(Nc2nccn3c(-c4cn(CC(F)F)nc4C(F)(F)F)cnc23)cc1F [Example 68, 4-[[3-[1-(2,2-difluoroethyl)-3-(trifluoromethyl)pyrazol-4-yl]imidazo[1,2-a]pyrazin-8-yl]amino]-2-fluoro-6-methyl-N-[3-(prop-2-ynylamino)propyl] benzamide]
  IC90: 430 nM

## C=CCn1cc(-c2cnc3c(Nc4cc(C)c(C(=O)N5CCNCC5)c(F)c4)nccn23)c(C(F)(F)F)n1 [Example 69, [2-fluoro-6-methyl-4-[[3-[1-prop-2-enyl-3-(trifluoromethyl)pyrazol-4-yl]imidazo[1,2-a]pyrazin-8-yl]amino]phenyl]-piperazin-1-ylmethanone]
[1]
  IC90: 433 nM

## CCc1cc(Nc2nccn3c(-c4cn(CC(F)F)nc4C(F)(F)F)cnc23)ccc1C(=O)N1CCN(C(=O)C2CCNCC2)CC1 [Example 70, [4-[[3-[1-(2,2-difluoroethyl)-3-(trifluoromethyl)pyrazol-4-yl]imidazo[1,2-a]pyrazin-8-yl]amino]-2-ethylphenyl]-[4-(piperidine-4-carbonyl)piperazin-1-yl]methanone]
[1]
  IC90: 489 nM

## CCc1cc(Nc2nccn3c(-c4cn(CCF)nc4C(F)(F)F)cnc23)ccc1C(=O)N1CCN(C(=O)C2CCNCC2)CC1 [Example 71, [2-ethyl-4-[[3-[1-(2-fluoroethyl)-3-(trifluoromethyl)pyrazol-4-yl]imidazo[1,2-a]pyrazin-8-yl]amino]phenyl]-[4-(piperidine-4-carbonyl)piperazin-1-yl]methanone]
[1]
  IC90: 593 nM

## C#CCNCCCNC(=O)c1c(C)cc(Nc2nccn3c(-c4cn(CC#C)nc4C(F)(F)F)cnc23)cc1F [Example 72, 2-fluoro-6-methyl-N-[3-(prop-2-ynylamino)propyl]-4-[[3-[1-prop-2-ynyl-3-(trifluoromethyl)pyrazol-4-yl]imidazo[1,2-a]pyrazin-8-yl]amino]benzamide]
[1]
  IC90: 599 nM

## Cc1cc(Nc2nccn3c(-c4cn(CCF)nc4C(F)(F)F)cnc23)cc(F)c1C(=O)N1CCNCC1 [Example 73, [2-fluoro-4-[[3-[1-(2-fluoroethyl)-3-(trifluoromethyl)pyrazol-4-yl]imidazo[1,2-a]pyrazin-8-yl]amino]-6-methylphenyl]-piperazin-1-ylmethanone]
[1]
  IC90: 687 nM

## C#CCNCCCNC(=O)c1c(C)cc(Nc2nccn3c(-c4cn(CCF)nc4C(F)(F)F)cnc23)cc1F [Example 74, 2-fluoro-4-[[3-[1-(2-fluoroethyl)-3-(trifluoromethyl)pyrazol-4-yl]imidazo[1,2-a]pyrazin-8-yl]amino]-6-methyl-N-[3-(prop-2-ynylamino)propyl] benzamide]
  IC90: 781 nM

## Cc1cc(Nc2nccn3c(-c4cn(CC#N)nc4C(F)(F)F)cnc23)cc(F)c1C(=O)NCCOCCN [Example 75, N-[2-(2-aminoethoxy)ethyl]-4-[[3-[1-(cyanomethyl)-3-(trifluoromethyl)pyrazol-4-yl]imidazo[1,2-a]pyrazin-8-yl]amino]-2-fluoro-6-methylbenzamide]
[1]
  IC90: 1700 nM

## C#CCNCCCNC(=O)c1c(C)cc(Nc2nccn3c(-c4cn(CC#N)nc4C(F)(F)F)cnc23)cc1F [Example 76, 4-[[3-[1-(cyanomethyl)-3-(trifluoromethyl)pyrazol-4-yl]imidazo[1,2-a]pyrazin-8-yl]amino]-2-fluoro-6-methyl-N-[3-(prop-2-ynylamino)propyl] benzamide]
  IC90: 2090 nM

## Cc1cc(Nc2nccn3c(-c4cn(CC#N)nc4C(F)(F)F)cnc23)cc(F)c1C(=O)N1CCNCC1 [Example 77, 2-[4-[8-[3-fluoro-5-methyl-4-(piperazine-1-carbonyl)anilino]imidazo[1,2-a]pyrazin-3-yl]-3-(trifluoromethyl)pyrazol-1-yl]acetonitrile]
[1]
  IC90: 3290 nM

## NCC(=O)N1CCN(C(=O)c2ccc(Nc3nccn4c(-c5cn(C(F)F)nc5C(F)(F)F)cnc34)cc2Cl)CC1 [Example 78, 2-amino-1-[4-[2-chloro-4-[[3-[1-(difluoromethyl)-3-(trifluoromethyl)pyrazol-4-yl]imidazo[1,2-a]pyrazin-8-yl]amino]benzoyl]piperazin-1-yl]ethanone]
[1]
  IC90: 161 nM

## O=C(c1ccc(Nc2nccn3c(-c4cn(C(F)F)nc4C(F)(F)F)cnc23)cc1Cl)N1CC2(CNC2)C1 [Example 79, [2-chloro-4-[[3-[1-(difluoromethyl)-3-(trifluoromethyl)pyrazol-4-yl]imidazo[1,2-a]pyrazin-8-yl]amino]phenyl]-(2,6-diazaspiro[3.3]heptan-2-yl)methanone]
[1]
  IC90: 222 nM

## Cc1cc(Nc2nccn3c(-c4c[nH]nc4C(F)(F)F)cnc23)cc(F)c1C(=O)NCCOCCN [Example 80, N-[2-(2-aminoethoxy)ethyl]-2-fluoro-6-methyl-4-[[3-[3-(trifluoromethyl)-1H-pyrazol-4-yl]imidazo[1,2-a]pyrazin-8-yl]amino]benzamide]
[1]
  IC90: 737 nM

## Cc1cc(Nc2nccn3c(-c4c[nH]nc4C(F)(F)F)cnc23)cc(F)c1C(=O)NCCCCCN [Example 81, N-(5-aminopentyl)-2-fluoro-6-methyl-4-[[3-[3-(trifluoromethyl)-1H-pyrazol-4-yl]imidazo[1,2-a]pyrazin-8-yl]amino]benzamide]
[1]
  IC90: 1060 nM

## CCc1cc(Nc2nccn3c(-c4cn(Cc5csc(C)n5)nc4C(F)(F)F)cnc23)ccc1C(=O)NCCCNCCCCNCCCN [Example 82, N-[3-[4-(3-aminopropylamino)butylamino]propyl]-2-ethyl-4-[[3-[1-[(2-methyl-1,3-thiazol-4-yl)methyl]-3-(trifluoromethyl)pyrazol-4-yl]imidazo[1,2-a]pyrazin-8 yl]amino]benzamide hydrochloride]
[1]
  IC90: 1150 nM

## Cc1cc(Nc2nccn3c(-c4c[nH]nc4C(F)(F)F)cnc23)cc(F)c1C(=O)N[C@H](C)CN [Example 83, N-[(2R)-1-aminopropan-2-yl]-2-fluoro-6-methyl-4-[[3-[3-(trifluoromethyl)-1H-pyrazol-4-yl]imidazo[1,2-a]pyrazin-8-yl]amino]benzamide]
[1]
  IC90: 2460 nM
